Test results published in US6413909B1, “Herbicide composition for control of rye grass and vetch in preplant burndown” (priority 2001, dated 2002).

Legend:
humans and other mammals = settings: result in words; cited from earlier work
vetch = settings: herbicide alone; cited from earlier work
[1] = test system: broadleaf weeds and grasses typically found in preplant corn fields; experiment: Field test of preplant burndown effectiveness (Example 1); format: in vivo; settings: average of ratings 6 and 8 weeks after treatment
Method: The composition of the present invention was tested for percent burndown effectiveness, compared to pretreatment, in fields containing broadleaf weeds and grasses typically found in preplant corn fields, including Texas panicum, fall panicum, signalgrass, goosegrass, barnyardgrass, yellow & green foxtail, pigweed, wild mustard, ryegrass, vetch, volunteer wheat, Florida pusley, smartweed, and cutleaf evening primrose.
The composition of the present invention consisted of about 57% ametryn, 25% atrazine, and 18% paraquat, by weight, and was applied at a rate of about 2 lbs. per acre. On separate fields, for comparison, ametryn alone, paraquat alone, atrazine alone, and ametryn plus gramoxone were applied. The composition of the present invention was formulated by suspending 2 lbs. of the composition of the present invention per 20 gallons of water. Herbicides were rated for burndown effectiveness 6 and 8 weeks after treatment. The two resulting values were averaged.

| Compound | toxicity to humans (humans and other mammals) | effective against vetch (vetch) | Percent Burndown ([1]; ametryn 1.14 lb active ingredient/acre, compared to pretreatment) | Percent Burndown ([1]; paraquat 0.35 lb active ingredient/acre) | Percent Burndown ([1]; paraquat 0.70 lb active ingredient/acre) |
| --- | --- | --- | --- | --- | --- |
| CCNc1nc(NC(C)C)nc(SC)n1 [ametryn, 2-(ethylamino)-4-isopropylamino-6-methylthio-s-triazine] | minimal human toxicity | 100% | 30% | – | – |
| C[n+]1ccc(-c2cc[n+](C)cc2)cc1 [paraquat, 1,1-dimethyl-4,4-bipyridinium] | high toxicity to humans and other mammals | – | – | 30% | 50% |
